These results are taken from patent US20180008688A1, “METHOD AND COMPOSITIONS FOR ENHANCING IMMUNOTHERAPEUTIC TREATMENT OF A CANCER” (Augusta University Research Institute, Inc., priority 2016, published 2018).

In test [1] the test system is B16F10 tumors. Briefly: Established B16F10 tumors treated with dual checkpoint blockade with or without nutlin-3a. The format is in vivo, mouse. Here is the method: (§1) In vivo tumor studies: The B16F10 and E.G7 (EL4-OVA) cell lines were obtained from ATCC. B16-OVA (B16F10 transfected with full-length chicken ovalbumin) clone MO4 was according to Falo et al. ((1995) Nat. Med. 1: 649-653). B16F10 cells expressing EGFP protein (B16-GFP cells) were derived using lentiviral transfection. Tumor implantation was performed as described (Sharma et al., (2007) J. Clin. Invest. 117: 2570-2582), using 1×10^5 cells for B16F10 and 1×10^6 cells for other cell lines (large inocula were used to ensure rapid tumor engraftment and immune suppression). Tumors were implanted bilaterally in each mouse as a control for reproducible implantation technique; replicate tumor diameters in a single mouse were typically within ±15%. Tumor volume was calculated from orthogonal diameters using the formula V=L×W^2×π/6. Mice received approved euthanasia when tumors reached a size of 300 mm^2 (product of orthogonal diameters); death was never used a planned endpoint in any study.
Tumor implantation was performed as described (Sharma et al., (2007) J. Clin. Invest. 117: 2570-2582). VO-OHpic was given at 10 mg/kg/day i.p., in 10% DMSO/PBS. Cyclophosphamide was given at 150 mg/kg i.p×1 dose; and oxaliplatin at 5 mg/kg i.p×1 dose. Nutlin-3a was administered daily at 10 mg/kg/day i.p. For checkpoint blockade, mice received anti-CTLA-4 plus a cocktail of antibodies against the PD-1 pathway. […]

The subject of test [2] is E.G7 tumors. Briefly: E.G7 (EL4-OVA) tumors in wild-type hosts treated with oxaliplatin with or without nutlin-3a. The format is in vivo, mouse. To be noted: for Ly6C+/CD103+ dendritic cells in tumors: nutlin added to oxaliplatin. The method, then: as §1
(§2) Tumor implantation was performed as described (Sharma et al., (2007) J. Clin. Invest. 117: 2570-2582). VO-OHpic was given at 10 mg/kg/day i.p., in 10% DMSO/PBS. Cyclophosphamide was given at 150 mg/kg i.p×1 dose; and oxaliplatin at 5 mg/kg i.p×1 dose. Nutlin-3a was administered daily at 10 mg/kg/day i.p. For checkpoint blockade, mice received anti-CTLA-4 plus a cocktail of antibodies against the PD-1 pathway. Vaccines and T cell adoptive transfer studies were performed as described (Sharma et al., (2015) Sci. Advances. 1: e1500845).
VO-OHpic was given at 10 mg/kg/day i.p., in 10% DMSO/PBS. Cyclophosphamide was given at 150 mg/kg i.p×1 dose. Oxaliplatin was given at 5 mg/kg i.p×1 dose. Nutlin-3a was dissolved at 2 mg/ml in 10% DMSO in buffered saline and administered daily at 10 mg/kg/day i.p. The 10 mg/kg/day dose was at the lower end of the parenteral dosing range described for mice (Zhang et al., (2011) Drug Meta. Dispos. 39: 15-21). For checkpoint blockade, mice received anti-CTLA-4 (clone 9D9, BioXcell) plus a cocktail of antibodies against the PD-1 pathway: anti-PD-L2, clone TY25 (Yamazaki et al., (2002) J. Immunol. 169: 5538-5545); anti-PD-1, clone J43 (Agata et al., (1996) Int. Immunol. 8: 765-772); and anti-PD-L1, clone MIH7 (Tsushima et al., (2003) Eur. J. Immunol. 33: 2773-2782). A cocktail was used in order to block the PD-1 pathway as completely as possible and thus minimize any peculiarities of a single blocking antibody.

The test system of test [3] is B16-OVA tumors. Briefly: RIP-mOVA mice with OT-I cells and B16-OVA tumors, immunotherapy with or without nutlin-3a. It is filed as in vivo. The method, then:
It was then determined which of these opposing effects would prevail when the same antigen was both a tumor-antigen and self-antigen. RIP-mOVA mice expressing OVA as a self-antigen were implanted with B16-OVA tumors expressing OVA as a tumor antigen (Falo. Jr. et al., (1995) Nat. Med. 1: 649-653). Prior to tumor implantation, all mice received adoptive transfer of congenically-marked OT-I cells. After tumors were established, mice were treated with immunotherapy (PTEN-inhibitor plus chemotherapy), with or without nutlin-3a.
RIP-mOVA mice bearing B16-OVA tumors were treated with a cocktail of blocking antibodies against CTLA-4 plus PD-1, PD-L1 and PD-L2, with or without concurrent nutlin-3a.
as §2
The immune-activating effect of p53 is context-specific for the tumor milieu: The immunogenic effect of nutlin-3a seemed paradoxical because in most settings p53 is thought to be immunosuppressive (Munoz-Fontela et al., (2016) Nat. Rev. lmmunol. 16: 741-750; Thomasova et al., (2012) Neoplasia 14: 1097-1101). It was considered that p53 actually plays two roles in the immune system: a self-tolerance role in normal tissues during physiologic cell death (Yoon et al., (2015) Science 349: 1261669); but a pro-inflammatory role in certain specialized contexts such as immune-surveillance of tumors (Munoz-Fontela et al., (2016) Nat. Rev. lmmunol. 16: 741-750). To test this, a model in which OVA-expressing tumors were implanted in RIP-mOVA mice (which constitutively express OVA in pancreatic islet cells) was used. OVA thus became both a normal tissue antigen and a tumor antigen.

Test [4] concerns E.G7 tumors. Description: RIP-mOVA mice with E.G7 tumors treated with oxaliplatin with or without nutlin. The format is in vivo. The settings on record: nutlin-3a added to oxaliplatin. The method, then: A classical model of ICD was first tested in which EL4-OVA lymphoma tumors (clone E.G7) are treated with oxaliplatin chemotherapy (Ghiringhelli et al., (2009) Nat. Med. 15: 1170-1178). E.G7 bears the same model antigen as B16-OVA (described with the RIP-mOVA model, above), so it was possible to test the effects of nutlin plus oxaliplatin in the RIP-mOVA model.

In test [5] the test system is OT-I T cells. Briefly: OT-I T cells activated with cognate antigen and different antigen-presenting cells, with nutlin. It is filed as cell-based, mouse. The source says: Under normal circumstances the signal to downregulate p53 is provided by engagement of the T cell antigen receptor (TCR) that activates MDM2 and targets p53 for degradation (Watanabe et al., (2014) Immunity 40: 681-691).
To test whether the effect of Ly6c^+CD103^+ dendritic cells was due to IL-12, OT-I T cells were activated using 3 different types of antigen-presenting cells (APCs).
Consistent with this, when dendritic cells were sorted from TDLNs of IL-12-deficient mice (IL-12p40-KO), treated with the same immunotherapy regimen, these dendritic cells were unable to rescue T cells from nutlin. T cell proliferation tracked concordantly with p53 levels. In these experiments with dendritic cells from TDLNs, feeder populations were added to maintain functional activity.

[6] abbreviates: nutlin added to checkpoint blockade.
Where [7] appears, read: nutlin-3a 10 mg/kg/day added to CTX/VO-OHpic, FIG. 13.
Setting [8] is: nutlin-3a 10 mg/kg/day added to CTX/VO-OHpic, FIG. 13, 10 mg/kg/day.
Setting [9] is: activation with cognate antigen.

“Also recorded” adds a separate entry of the source.

Take `COc1ccc(C2=NC(c3ccc(Cl)cc3)C(c3ccc(Cl)cc3)N2C(=O)N2CCNC(=O)C2)c(OC(C)C)c1` (single isomer, unassigned; (-)) [nutlin-3a, (−)-4-(4,5-Bis(4-chlorophenyl)-2-(2-isopropoxy-4-methoxyphenyl)-4,5-dihydro-1H-imidazole-1-carbonyl)piperazin-2-one]: the “Ly6C+/CD103+ dendritic cells in tumors” value in test [1] (nutlin added to checkpoint blockade, after 2 weeks of treatment) was “maintained large numbers”; in test [2] it was “sustained expression”; in test [2] (listed as nutlin) it was “maintained long-term expression”. In addition, the anti-tumor effect result in test [1] (nutlin-3a 10 mg/kg/day i.p. added to dual checkpoint blockade, FIG. 8A) was “significantly enhanced and prolonged the effect of treatment”; in test [2] (nutlin-3a added to one dose of oxaliplatin, FIG. 8C), “markedly prolonged the anti-tumor effect; also recorded: significantly increased the intensity and duration of the anti-tumor effect”; in test [3] (setting [6]) it was “significantly enhancing and prolonging the anti-tumor effect”; in test [3] (setting [7]), “markedly enhanced the anti-tumor response”; in test [3] (setting [8]), “enhanced and prolonged”. In test [2] (nutlin-3a added to oxaliplatin), the IL-12 production result is listed as “enhanced IL-12 production”. Also, in test [3] (setting [6]), the “Ly6c+CD103+ dendritic cells in the tumors” value is “maintained expression”. Moreover, the autoimmune diabetes result is recorded as “protected recipient subjects from autoimmune diabetes” in test [3] (nutlin added to checkpoint blockade (CTLA-4 plus PD-1, PD-L1, PD-L2 antibodies)); “fully protected from diabetes” in test [3] (setting [7]); “protected the mice from lethal autoimmunity” in test [3] (setting [8]); “protected the mice from diabetes” in test [4]. Further, the “p53 in OT-I T cells in pancreatic LNs” value in test [3] (nutlin added to immunotherapy) is listed as “increase p53”. Further, in test [3] (nutlin added to immunotherapy, same animals), the “p53 in OT-I T cells in TDLNs” value is given as “complete loss of detectable p53 expression”. The anti-tumor activity result in test [4] is “significantly enhancing the anti-tumor activity”. In addition, the “down-regulation of p53 in OT-I T cells” value in test [5] (CD11c+Ly6c+ dendritic cells from TDLNs of VO-OHpic+CTX treated mice as APCs) is on record as “lost all ability to prevent down-regulation of p53”; in test [5] (dendritic cells from normal LNs as APCs), “completely prevented”. Also, in test [5] (setting [9]), the T cell proliferation result is recorded as “prevented T cell proliferation”. Further, the “total p53 in OT-I T cells” value in test [5] (setting [9]) is recorded as “marked increase”.
